Test results as given in patent US20230013669A1, “Antibacterial Treatment Using a Cannabinoid and an Active Agent” (priority 2019, published 2023).
Where “and” joins values, the source holds several entries; their conditions need not be identical. Identical values can stand only once. Like-named read-outs stand apart in the source and are kept apart here.

Columns and labels:
Experiment in all cases: Synergy of cannabidiol with cell-wall disrupting agent (CBD MIC in combination, FICI)
Type in all cases: cell-based
[1] = system: Pseudomonas aeruginosa ATCC 27853 (GN_042); settings: for FICI: calculated using MIC of 256 μg/mL for cannabidiol; for MIC: Pseudomonas aeruginosa
Experimental: (§1) The compounds were stored short term at 4° C.
(§2) Analysis was performed using Microsoft Excel.

[2] = system: Pseudomonas aeruginosa FADDI-PA067 (GN_177), Polymyxin resistant; settings: for MIC: Pseudomonas aeruginosa
Experimental: as §1, §2

[3] = system: Escherichia coli HS71 (GN_110), CTX-M; settings: for MIC: Escherichia coli
Experimental: as §1, §2

C=C(C)C1CCC(C)=CC1c1c(O)cc(CCCCC)cc1O (stereo not drawn) [Cannabidiol, 2-[3-methyl-6-(1-methylethenyl)-2-cyclohexen-1-yl]-5-pentyl-1,3-benzenediol]
CBD MIC with Ceftazidime ([1]; Ceftazidime at 1 μg/mL (Table 66), Pseudomonas aeruginosa ATCC 27853): >32 µg/mL | CBD MIC with Ceftazidime ([1]; Ceftazidime at 2 μg/mL (Table 66), Pseudomonas aeruginosa ATCC 27853): 0.001 µg/mL | CBD MIC with Ceftazidime ([1]; Ceftazidime at 4 μg/mL (Table 66), Pseudomonas aeruginosa ATCC 27853): 0.001 µg/mL | CBD MIC with Ceftazidime ([1]; Ceftazidime at […] (Table 66), Pseudomonas aeruginosa ATCC 27853): >32 µg/mL | CBD MIC with Colistin ([1]; Colistin at 1 μg/mL, Pseudomonas aeruginosa ATCC 27853): 0.001 µg/mL | activity of cannabidiol in combination with Polymyxin B ([1]; Example 1): effective | Average FICI score ([1]; Example 1, GN_042, cannabidiol + MCC_006636 (Polymyxin B)): 0.265 | Synergy ([1]; Example 1, GN_042, cannabidiol + MCC_006636 (Polymyxin B), synergy when FICI≤0.5): YES | activity of cannabidiol combined with Polymyxin B ([1]; Example 6): effective | CBD MIC with Polymyxin B at concentration 0.015625 μg/mL ([1]; Example 6, GN_042): >256 µg/mL | CBD MIC with Polymyxin B at concentration 0.03125 μg/mL ([1]; Example 6, GN_042): >256 µg/mL | CBD MIC with Polymyxin B at concentration 0.0625 μg/mL ([1]; Example 6, GN_042): >256 µg/mL | CBD MIC with Polymyxin B at concentration 0.25 μg/mL ([1]; Example 6, GN_042): >256 µg/mL | CBD MIC with Polymyxin B at concentration […] ([1]; Example 6, GN_042): >256 µg/mL | CBD MIC with Polymyxin B at concentration 0.5 μg/mL ([1]; Example 6, GN_042, listed as CBD): 2 µg/mL and 4 µg/mL | activity of cannabidiol combined with ticarcillin ([1]; Example 13): effective | activity of cannabidiol combined with ceftazidime ([1]; Example 16): effective | activity of cannabidiol combined with aztreonam ([1]; Example 18): effective | activity of cannabidiol combined with octapeptin C4 ([1]; Example 21): effective | activity of cannabidiol in combination with MCC_8980 ([1]; Example 24): effective | FICI range ([1]; Pseudomonas aeruginosa ATCC 27853, CBD with FADDI-287, MIC table (Table 95), listed as CBD): 0.53-4 and 0.56-4 | FICI range ([1]; Pseudomonas aeruginosa ATCC 27853, CBD with FADDI-287, Synergy table (Table 97)): No Synergy | FICI range ([1]; Pseudomonas aeruginosa ATCC 27853, CBD with MCC_8980, MIC table (Table 99), listed as CBD): 0.16-1.06 and 0.19-1.06 | FICI range ([1]; Pseudomonas aeruginosa ATCC 27853, CBD with MCC_8980, Synergy table (Table 101), listed as CBD): 0.16-0.25 and 0.19-0.26 | FICI range ([1]; Pseudomonas aeruginosa ATCC 27853, CBD with Spero Potentiator SPR741, MIC table (Table 91)): 1.01-1.25 | FICI range ([1]; Pseudomonas aeruginosa ATCC 27853, CBD with Spero Potentiator SPR741, Synergy table (Table 93)): No Synergy | FICI range ([1]; Pseudomonas aeruginosa ATCC 27853, CBD with Spero SPR206, Synergy table): No Synergy | CBD MIC with FADDI-287 ([1]; Pseudomonas aeruginosa ATCC 27853, FADDI-287 at 0.5 μg/mL, listed as CBD): 16 µg/mL | CBD MIC with MCC_8980 ([1]; Pseudomonas aeruginosa ATCC 27853, MCC_8980 at 8 μg/mL, listed as CBD): 16 µg/mL | CBD MIC with MCC_8980 ([1]; Pseudomonas aeruginosa ATCC 27853, MCC_8980 at 16 μg/mL, listed as CBD): 2 µg/mL | FICI ([1]; Pseudomonas aeruginosa ATCC 27853, cannabidiol with FADDI-287 at 0.25 μg/mL): 1.25 | FICI ([1]; Pseudomonas aeruginosa ATCC 27853, cannabidiol with FADDI-287 at 0.5 μg/mL): 0.5312 and 0.5625 | FICI ([1]; Pseudomonas aeruginosa ATCC 27853, cannabidiol with FADDI-287 at 1 μg/mL): 1 | FICI ([1]; Pseudomonas aeruginosa ATCC 27853, cannabidiol with FADDI-287 at 2 μg/mL): 2 | FICI ([1]; Pseudomonas aeruginosa ATCC 27853, cannabidiol with FADDI-287 at 4 μg/mL): 4 | FICI ([1]; Pseudomonas aeruginosa ATCC 27853, cannabidiol with MCC_8980 at 0.5 μg/mL): 1.008 | FICI ([1]; Pseudomonas aeruginosa ATCC 27853, cannabidiol with MCC_8980 at 1 μg/mL): 1.016 | FICI ([1]; Pseudomonas aeruginosa ATCC 27853, cannabidiol with MCC_8980 at 4 μg/mL): 1.0625 | FICI ([1]; Pseudomonas aeruginosa ATCC 27853, cannabidiol with MCC_8980 at 8 μg/mL): 0.1562 and 0.1875 | FICI ([1]; Pseudomonas aeruginosa ATCC 27853, cannabidiol with MCC_8980 at 16 μg/mL): 0.2539 and 0.2578 | FICI ([1]; Pseudomonas aeruginosa ATCC 27853, cannabidiol with SPR741 at 0.5 μg/mL): 1.008 | FICI ([1]; Pseudomonas aeruginosa ATCC 27853, cannabidiol with SPR741 at 1 μg/mL): 1.016 | FICI ([1]; Pseudomonas aeruginosa ATCC 27853, cannabidiol with SPR741 at 4 μg/mL): 1.0625 | FICI ([1]; Pseudomonas aeruginosa ATCC 27853, cannabidiol with SPR741 at 16 μg/mL): 1.25 | MIC ([1]; ATCC27853, MCC_6442 at 4 μg/mL, Pseudomonas aeruginosa ATCC 27853, read-out: CBD MIC with MCC_6442): 0.001 µg/mL | MIC ([1]; ATCC27853, Octapeptin C4 at 4 μg/mL, read-out: CBD MIC with Octapeptin C4): 0.001 µg/mL | MIC ([1]; ATCC27853, Pseudomonas aeruginosa ATCC 27853, FADDI-287 at 0.5 μg/mL, read-out: CBD MIC with FADDI-287): 8 µg/mL | MIC ([1]; ATCC27853, Pseudomonas aeruginosa ATCC 27853, FADDI-287 at 1 μg/mL, read-out: CBD MIC with FADDI-287): 0.001 µg/mL | MIC ([1]; ATCC27853, Pseudomonas aeruginosa ATCC 27853, FADDI-287 at 2 μg/mL, read-out: CBD MIC with FADDI-287): 0.001 µg/mL | MIC ([1]; ATCC27853, Pseudomonas aeruginosa ATCC 27853, FADDI-287 at 4 μg/mL, read-out: CBD MIC with FADDI-287): 0.001 µg/mL | MIC ([1]; ATCC27853, Pseudomonas aeruginosa ATCC 27853, MCC_8980 at 8 μg/mL, read-out: CBD MIC with MCC_8980): 8 µg/mL | MIC ([1]; ATCC27853, Pseudomonas aeruginosa ATCC 27853, MCC_8980 at 16 μg/mL, read-out: CBD MIC with MCC_8980): 1 µg/mL | MIC ([1]; ATCC27853, Spero SPR206 at 0.25 μg/mL, 1st of 3 experiments, read-out: CBD MIC with Spero SPR206): > 256 µg/mL | MIC ([1]; ATCC27853, Spero SPR206 at 0.25 μg/mL, 3rd of 3 experiments, read-out: CBD MIC with Spero SPR206): > 256 µg/mL | MIC ([1]; ATCC27853, Spero SPR206 at 0.5 μg/mL, 1st of 3 experiments, read-out: CBD MIC with Spero SPR206): > 256 µg/mL | MIC ([1]; ATCC27853, Spero SPR206 at 0.5 μg/mL, 3rd of 3 experiments, read-out: CBD MIC with Spero SPR206): > 256 µg/mL | MIC ([1]; ATCC27853, Spero SPR206 at 1 μg/mL, 1st of 3 experiments, read-out: CBD MIC with Spero SPR206): 0.001 µg/mL | MIC ([1]; ATCC27853, Spero SPR206 at 1 μg/mL, 3rd of 3 experiments, read-out: CBD MIC with Spero SPR206): > 256 µg/mL | MIC ([1]; ATCC27853, Spero SPR206 at 2 μg/mL, 1st of 3 experiments, read-out: CBD MIC with Spero SPR206): 0.001 µg/mL | MIC ([1]; ATCC27853, Spero SPR206 at 2 μg/mL, 3rd of 3 experiments, read-out: CBD MIC with Spero SPR206): > 256 µg/mL | MIC ([1]; ATCC27853, Spero SPR206 at 4 μg/mL, 1st of 3 experiments, read-out: CBD MIC with Spero SPR206): 0.001 µg/mL | MIC ([1]; ATCC27853, Spero SPR206 at 4 μg/mL, 3rd of 3 experiments, read-out: CBD MIC with Spero SPR206): > 256 µg/mL | CBD MIC with Ticarcillin ([1]; Ticarcillin at 16 μg/mL, Pseudomonas aeruginosa ATCC 27853): 0.001 µg/mL | CBD MIC with Ticarcillin ([1]; Ticarcillin at 32 μg/mL, Pseudomonas aeruginosa ATCC 27853): 0.001 µg/mL | CBD MIC with Ticarcillin ([1]; Ticarcillin at 64 μg/mL, Pseudomonas aeruginosa ATCC 27853): 0.001 µg/mL | cannabidiol combined with Polymyxin B: synergy ([2]; Example 8): synergy | MIC ([2]; read-out: CBD MIC with MCC_00636 at concentration 0.015625 μg/mL): > 256 µg/mL | MIC ([2]; read-out: CBD MIC with MCC_00636 at concentration 0.03125 μg/mL): > 256 µg/mL | MIC ([2]; read-out: CBD MIC with MCC_00636 at concentration 0.0625 μg/mL): > 256 µg/mL | MIC ([2]; read-out: CBD MIC with MCC_00636 at concentration 0.25 μg/mL): > 256 µg/mL | MIC ([2]; read-out: CBD MIC with MCC_00636 at concentration 0.5 μg/mL): 4 µg/mL | MIC ([2]; read-out: CBD MIC with MCC_00636 at concentration 1 μg/mL): 0.5 µg/mL | MIC ([2]; read-out: CBD MIC with MCC_00636 at concentration 2 μg/mL): 0.000977 µg/mL | MIC ([2]; read-out: CBD MIC with MCC_00636 at concentration 4 μg/mL): 0.000977 µg/mL | MIC ([2]; read-out: CBD MIC with MCC_00636 at concentration […]): > 256 µg/mL | MIC ([3]; read-out: CBD MIC with MCC_09222 at concentration 2 μg/mL, Example 9, GN_110): 4 µg/mL | MIC ([3]; read-out: CBD MIC with MCC_09222 at concentration 4 μg/mL, Example 9, GN_110): 1 µg/mL | MIC ([3]; read-out: CBD MIC with MCC_09222 at concentration 8 μg/mL, Example 9, GN_110): 1 µg/mL | MIC ([3]; read-out: CBD MIC with MCC_09222 at concentration 16 μg/mL, Example 9, GN_110): 0.5 µg/mL | MIC ([3]; read-out: CBD MIC with MCC_09222 at concentration 32 μg/mL, Example 9, GN_110): 0.000977 µg/mL | MIC ([3]; read-out: CBD MIC with MCC_09222 at concentration 64 μg/mL, Example 9, GN_110): 0.000977 µg/mL | MIC ([3]; read-out: CBD MIC with MCC_09222 at concentration 128 μg/mL, Example 9, GN_110): 0.000977 µg/mL | cannabidiol in combination with MCC_09222: synergy ([3]; Example 9): synergistic effect | CBD MIC with MCC_09222 at concentration 16 μg/mL ([3]; Example 9, GN_110, listed as CBD): 1 µg/mL
